Test system: not listed separately
Assay: Antiproliferative activity against human SF539 cells assessed as cell growth at 10^-6 M after 48 hrs by sulforhodamine B assay
Type: functional
Conditions: SF-539, 48 h, read-out: Activity
`CNC(=O)c1cc(Oc2ccc3nc(NC(=O)Nc4ccc(Cl)c(Cl)c4)sc3c2)ccn1` gave a growth at 1 µM of 100%.

Test system: not listed separately
Assay: Antiproliferative activity against human DU145 cells assessed as cell growth at 10^-4 M after 48 hrs by sulforhodamine B assay
Type: functional
Conditions: DU-145, 48 h, read-out: Activity
For `CNC(=O)c1cc(Oc2ccc3nc(NC(=O)Nc4ccc(Cl)c(Cl)c4)sc3c2)ccn1`, the growth at 100 µM was -34%.

Test system: SK-MEL-2
Assay: Antiproliferative activity against human SK-MEL-2 cells assessed as cell growth at 10^-7 M after 48 hrs by sulforhodamine B assay
Type: functional
Conditions: SK-MEL-2, 48 h, read-out: Activity
`CNC(=O)c1cc(Oc2ccc3nc(NC(=O)Nc4ccc(Cl)c(Cl)c4)sc3c2)ccn1` gave a growth at 0.1 µM of 118%.

Test system: not listed separately
Assay: Antiproliferative activity against human IGROV1 cells assessed as cell growth at 10^-4 M after 48 hrs by sulforhodamine B assay
Type: functional
Conditions: IGROV-1, 48 h, read-out: Activity
With `CNC(=O)c1cc(Oc2ccc3nc(NC(=O)Nc4ccc(Cl)c(Cl)c4)sc3c2)ccn1` the growth at 100 µM was -20%.

Test system: not listed separately
Assay: Antiproliferative activity against human Caki1 cells assessed as cell growth at 10^-8 M after 48 hrs by sulforhodamine B assay
Type: functional
Conditions: CAKI-1, 48 h, read-out: Activity
`CNC(=O)c1cc(Oc2ccc3nc(NC(=O)Nc4ccc(Cl)c(Cl)c4)sc3c2)ccn1` gave a growth at 0.01 µM of 92%.

Test system: CCRF-CEM
Assay: Antiproliferative activity against human CCRF-CEM cells assessed as cell growth at 10^-8 M after 48 hrs by sulforhodamine B assay
Type: functional
Conditions: read-out: Activity
With `CNC(=O)c1cc(Oc2ccc3nc(NC(=O)Nc4ccc(Cl)c(Cl)c4)sc3c2)ccn1` the growth at 0.01 µM was 102%.

Test system: A498
Assay: Antiproliferative activity against human A498 cells assessed as cell growth at 10^-7 M after 48 hrs by sulforhodamine B assay
Type: functional
Conditions: A498, 48 h, read-out: Activity
With `CNC(=O)c1cc(Oc2ccc3nc(NC(=O)Nc4ccc(Cl)c(Cl)c4)sc3c2)ccn1` the growth at 0.1 µM was 110%.

Test system: MDA-MB-231
Assay: Antiproliferative activity against human MDA-MB-231 cells assessed as cell growth at 10^-7 M after 48 hrs by sulforhodamine B assay
Type: functional
Conditions: MDA-MB-231, 48 h, read-out: Activity
`CNC(=O)c1cc(Oc2ccc3nc(NC(=O)Nc4ccc(Cl)c(Cl)c4)sc3c2)ccn1` gave a growth at 0.1 µM of 97%.

Test system: A498
Assay: Antiproliferative activity against human A498 cells assessed as cell growth at 10^-4 M after 48 hrs by sulforhodamine B assay
Type: functional
Conditions: A498, 48 h, read-out: Activity
For `CNC(=O)c1cc(Oc2ccc3nc(NC(=O)Nc4ccc(Cl)c(Cl)c4)sc3c2)ccn1`, the growth at 100 µM was -42%.

Test system: not listed separately
Assay: Antiproliferative activity against human HL-60(TB) cells assessed as growth inhibition after 48 hrs by sulforhodamine B assay
Type: functional
Conditions: HL-60, 48 h
In the case of `CNC(=O)c1cc(Oc2ccc3nc(NC(=O)Nc4ccc(Cl)c(Cl)c4)sc3c2)ccn1`, the GI50 is reported as > 100 µM and the TGI is reported as > 100 µM.

Same assay, conditions: HL-60, 48 h, read-out: LC50 (the source's name)
In the case of `CNC(=O)c1cc(Oc2ccc3nc(NC(=O)Nc4ccc(Cl)c(Cl)c4)sc3c2)ccn1`, the CC50 is reported as > 100 µM.

Test system: KM12
Assay: Antiproliferative activity against human KM12 cells assessed as cell growth at 10^-8 M after 48 hrs by sulforhodamine B assay
Type: functional
Conditions: KM12, 48 h, read-out: Activity
Molecule `CNC(=O)c1cc(Oc2ccc3nc(NC(=O)Nc4ccc(Cl)c(Cl)c4)sc3c2)ccn1` has a growth at 0.01 µM of 98%.

Biological target: CYP2D6 (Homo sapiens, UniProt P10635)
Sequence (P10635 whole entry): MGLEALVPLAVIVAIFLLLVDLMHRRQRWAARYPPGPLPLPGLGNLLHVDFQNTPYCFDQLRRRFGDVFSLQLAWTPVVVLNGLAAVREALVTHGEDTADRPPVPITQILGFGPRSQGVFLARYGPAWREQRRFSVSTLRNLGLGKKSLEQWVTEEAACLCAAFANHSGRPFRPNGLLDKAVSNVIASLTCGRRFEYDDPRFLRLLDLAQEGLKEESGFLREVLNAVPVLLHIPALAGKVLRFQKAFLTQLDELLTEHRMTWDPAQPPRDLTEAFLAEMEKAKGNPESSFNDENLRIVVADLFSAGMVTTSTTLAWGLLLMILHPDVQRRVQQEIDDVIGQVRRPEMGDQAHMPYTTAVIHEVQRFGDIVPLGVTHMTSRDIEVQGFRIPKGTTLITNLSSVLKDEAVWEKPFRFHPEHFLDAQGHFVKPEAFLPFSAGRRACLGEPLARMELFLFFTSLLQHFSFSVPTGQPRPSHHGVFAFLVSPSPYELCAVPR
Assay: Inhibition of recombinant human CYP2D6 assessed as remaining enzyme activity using CYP2D6 blue as substrate at 10 uM after 5 mins in presence of NADP by fluorescence plate reader analysis
Type: ADME
Conditions: recombinant human CYP2D6, probe CYP2D6 blue, read-out: Activity
Work on `CNC(=O)c1cc(Oc2ccc3nc(NC(=O)Nc4ccc(Cl)c(Cl)c4)sc3c2)ccn1` yielded an activity at 5 min, 10 µM of 96.4%.

Test system: not listed separately
Assay: Antiproliferative activity against human OVCAR8 cells assessed as growth inhibition after 48 hrs by sulforhodamine B assay
Type: functional
Conditions: OVCAR-8, 48 h
`CNC(=O)c1cc(Oc2ccc3nc(NC(=O)Nc4ccc(Cl)c(Cl)c4)sc3c2)ccn1` gave a GI50 of 2.36 µM, an LC50 of 73.9 µM and a TGI of 5.27 µM.

Test system: not listed separately
Assay: Antiproliferative activity against human HOP62 cells assessed as cell growth at 10^-8 M after 48 hrs by sulforhodamine B assay
Type: functional
Conditions: HOP-62, 48 h, read-out: Activity
For `CNC(=O)c1cc(Oc2ccc3nc(NC(=O)Nc4ccc(Cl)c(Cl)c4)sc3c2)ccn1`, the growth at 0.01 µM was 105%.

Test system: MCF7
Assay: Antiproliferative activity against human MCF7 cells assessed as cell growth at 10^-4 M after 48 hrs by sulforhodamine B assay
Type: functional
Conditions: MCF7, 48 h, read-out: Activity
`CNC(=O)c1cc(Oc2ccc3nc(NC(=O)Nc4ccc(Cl)c(Cl)c4)sc3c2)ccn1` showed a growth at 100 µM of 7%.

Test system: not listed separately
Assay: Antiproliferative activity against human Hs 578T cells assessed as cell growth at 10^-6 M after 48 hrs by sulforhodamine B assay
Type: functional
Conditions: read-out: Activity
With `CNC(=O)c1cc(Oc2ccc3nc(NC(=O)Nc4ccc(Cl)c(Cl)c4)sc3c2)ccn1` the growth at 1 µM was 108%.

Test system: NCI-H226
Assay: Antiproliferative activity against human NCI-H226 cells assessed as cell growth at 10^-4 M after 48 hrs by sulforhodamine B assay
Type: functional
Conditions: NCI-H226, 48 h, read-out: Activity
`CNC(=O)c1cc(Oc2ccc3nc(NC(=O)Nc4ccc(Cl)c(Cl)c4)sc3c2)ccn1` gave a growth at 100 µM of -59%.

Test system: SR
Assay: Antiproliferative activity against human SR cells assessed as cell growth at 10^-6 M after 48 hrs by sulforhodamine B assay
Type: functional
Conditions: read-out: Activity
With `CNC(=O)c1cc(Oc2ccc3nc(NC(=O)Nc4ccc(Cl)c(Cl)c4)sc3c2)ccn1` the growth at 1 µM was 97%.

Test system: NCI-H460
Assay: Antiproliferative activity against human NCI-H460 cells assessed as cell growth at 10^-7 M after 48 hrs by sulforhodamine B assay
Type: functional
Conditions: NCI-H460, 48 h, read-out: Activity
For `CNC(=O)c1cc(Oc2ccc3nc(NC(=O)Nc4ccc(Cl)c(Cl)c4)sc3c2)ccn1`, the growth at 0.1 µM was 109%.

Test system: SN12C
Assay: Antiproliferative activity against human SN12C cells assessed as cell growth at 10^-7 M after 48 hrs by sulforhodamine B assay
Type: functional
Conditions: read-out: Activity
In the case of `CNC(=O)c1cc(Oc2ccc3nc(NC(=O)Nc4ccc(Cl)c(Cl)c4)sc3c2)ccn1`, the growth at 0.1 µM is reported as 107%.

Test system: not listed separately
Assay: Antiproliferative activity against human SKOV3 cells assessed as cell growth at 10^-7 M after 48 hrs by sulforhodamine B assay
Type: functional
Conditions: SK-OV-3, 48 h, read-out: Activity
`CNC(=O)c1cc(Oc2ccc3nc(NC(=O)Nc4ccc(Cl)c(Cl)c4)sc3c2)ccn1` showed a growth at 0.1 µM of 115%.

Test system: SR
Assay: Antiproliferative activity against human SR cells assessed as cell growth at 10^-7 M after 48 hrs by sulforhodamine B assay
Type: functional
Conditions: read-out: Activity
`CNC(=O)c1cc(Oc2ccc3nc(NC(=O)Nc4ccc(Cl)c(Cl)c4)sc3c2)ccn1` gave a growth at 0.1 µM of 105%.

Test system: not listed separately
Assay: Antiproliferative activity against human SNB19 cells assessed as growth inhibition after 48 hrs by sulforhodamine B assay
Type: functional
Conditions: SNB-19, 48 h
`CNC(=O)c1cc(Oc2ccc3nc(NC(=O)Nc4ccc(Cl)c(Cl)c4)sc3c2)ccn1` showed a GI50 of 1.99 µM, an LC50 (50% lethal concentration) of 7.95 µM and a TGI of 3.98 µM.

Test system: NCI-H226
Assay: Antiproliferative activity against human NCI-H226 cells assessed as cell growth at 10^-7 M after 48 hrs by sulforhodamine B assay
Type: functional
Conditions: NCI-H226, 48 h, read-out: Activity
Work on `CNC(=O)c1cc(Oc2ccc3nc(NC(=O)Nc4ccc(Cl)c(Cl)c4)sc3c2)ccn1` yielded a growth at 0.1 µM of 106%.

Test system: MCF7
Assay: Antiproliferative activity against human MCF7 cells assessed as cell growth at 10^-8 M after 48 hrs by sulforhodamine B assay
Type: functional
Conditions: MCF7, 48 h, read-out: Activity
In the case of `CNC(=O)c1cc(Oc2ccc3nc(NC(=O)Nc4ccc(Cl)c(Cl)c4)sc3c2)ccn1`, the growth at 0.01 µM is reported as 87%.

Test system: not listed separately
Assay: Antiproliferative activity against human SF295 cells assessed as cell growth at 10^-4 M after 48 hrs by sulforhodamine B assay
Type: functional
Conditions: SF-295, 48 h, read-out: Activity
Work on `CNC(=O)c1cc(Oc2ccc3nc(NC(=O)Nc4ccc(Cl)c(Cl)c4)sc3c2)ccn1` yielded a growth at 100 µM of -74%.

Test system: not listed separately
Assay: Antiproliferative activity against human HCT15 cells assessed as cell growth at 10^-8 M after 48 hrs by sulforhodamine B assay
Type: functional
Conditions: HCT-15, 48 h, read-out: Activity
`CNC(=O)c1cc(Oc2ccc3nc(NC(=O)Nc4ccc(Cl)c(Cl)c4)sc3c2)ccn1` showed a growth at 0.01 µM of 89%.

Test system: not listed separately
Assay: Antiproliferative activity against human SF295 cells assessed as growth inhibition after 48 hrs by sulforhodamine B assay
Type: functional
Conditions: SF-295, 48 h
Work on `CNC(=O)c1cc(Oc2ccc3nc(NC(=O)Nc4ccc(Cl)c(Cl)c4)sc3c2)ccn1` yielded a GI50 of 1.53 µM and a TGI of 3.13 µM.

Same assay, conditions: SF-295, 48 h, read-out: LC50 (the source's name)
`CNC(=O)c1cc(Oc2ccc3nc(NC(=O)Nc4ccc(Cl)c(Cl)c4)sc3c2)ccn1` gave a CC50 of 6.41 µM.

Test system: not listed separately
Assay: Antiproliferative activity against human UACC62 cells assessed as cell growth at 10^-7 M after 48 hrs by sulforhodamine B assay
Type: functional
Conditions: UACC-62, 48 h, read-out: Activity
Molecule `CNC(=O)c1cc(Oc2ccc3nc(NC(=O)Nc4ccc(Cl)c(Cl)c4)sc3c2)ccn1` has a growth at 0.1 µM of 95%.

Test system: MDA-MB-435
Assay: Antiproliferative activity against human MDA-MB-435 cells assessed as cell growth at 10^-8 M after 48 hrs by sulforhodamine B assay
Type: functional
Conditions: MDA-MB-435, 48 h, read-out: Activity
For `CNC(=O)c1cc(Oc2ccc3nc(NC(=O)Nc4ccc(Cl)c(Cl)c4)sc3c2)ccn1`, the growth at 0.01 µM was 89%.

Test system: K562
Assay: Antiproliferative activity against human K562 cells assessed as cell growth at 10^-4 M after 48 hrs by sulforhodamine B assay
Type: functional
Conditions: K562, 48 h, read-out: Activity
`CNC(=O)c1cc(Oc2ccc3nc(NC(=O)Nc4ccc(Cl)c(Cl)c4)sc3c2)ccn1` gave a growth at 100 µM of 53%.

Test system: M14
Assay: Antiproliferative activity against human M14 cells assessed as cell growth at 10^-6 M after 48 hrs by sulforhodamine B assay
Type: functional
Conditions: M14, 48 h, read-out: Activity
In the case of `CNC(=O)c1cc(Oc2ccc3nc(NC(=O)Nc4ccc(Cl)c(Cl)c4)sc3c2)ccn1`, the growth at 1 µM is reported as 97%.

Test system: not listed separately
Assay: Antiproliferative activity against human UACC257 cells assessed as cell growth at 10^-8 M after 48 hrs by sulforhodamine B assay
Type: functional
Conditions: UACC-257, 48 h, read-out: Activity
With `CNC(=O)c1cc(Oc2ccc3nc(NC(=O)Nc4ccc(Cl)c(Cl)c4)sc3c2)ccn1` the growth at 0.01 µM was 92%.

Test system: ACHN
Assay: Antiproliferative activity against human ACHN cells assessed as cell growth at 10^-6 M after 48 hrs by sulforhodamine B assay
Type: functional
Conditions: read-out: Activity
For `CNC(=O)c1cc(Oc2ccc3nc(NC(=O)Nc4ccc(Cl)c(Cl)c4)sc3c2)ccn1`, the growth at 1 µM was 88%.

Test system: not listed separately
Assay: Antiproliferative activity against human HOP62 cells assessed as cell growth at 10^-6 M after 48 hrs by sulforhodamine B assay
Type: functional
Conditions: HOP-62, 48 h, read-out: Activity
For `CNC(=O)c1cc(Oc2ccc3nc(NC(=O)Nc4ccc(Cl)c(Cl)c4)sc3c2)ccn1`, the growth at 1 µM was 119%.

Test system: not listed separately
Assay: Antiproliferative activity against human COLO205 cells assessed as growth inhibition after 48 hrs by sulforhodamine B assay
Type: functional
Conditions: COLO 205, 48 h
For `CNC(=O)c1cc(Oc2ccc3nc(NC(=O)Nc4ccc(Cl)c(Cl)c4)sc3c2)ccn1`, the GI50 was 4.25 µM and the TGI was > 100 µM.

Same assay, conditions: COLO 205, 48 h, read-out: LC50 (the source's name)
With `CNC(=O)c1cc(Oc2ccc3nc(NC(=O)Nc4ccc(Cl)c(Cl)c4)sc3c2)ccn1` the CC50 was > 100 µM.

Reference: ChEMBL document CHEMBL3797052 (Eur J Med Chem, 2016)
